Results from PMC5855359, “A Statistical Thermodynamic Model for Ligands Interacting With Ion Channels: Theoretical Model and Experimental Validation of the KCNQ2 Channel” (Frontiers in Pharmacology, 2018).

Target: T1, KCNQ2 (Homo sapiens, UniProt O43526)
T1 construct: WT KCNQ2 homotetrameric channel expressed in CHO cells
Test: whole-cell voltage clamp in transfected CHO cells, concentration-response of outward current potentiation
Type: cell-based

T1 sequence (O43526 whole entry): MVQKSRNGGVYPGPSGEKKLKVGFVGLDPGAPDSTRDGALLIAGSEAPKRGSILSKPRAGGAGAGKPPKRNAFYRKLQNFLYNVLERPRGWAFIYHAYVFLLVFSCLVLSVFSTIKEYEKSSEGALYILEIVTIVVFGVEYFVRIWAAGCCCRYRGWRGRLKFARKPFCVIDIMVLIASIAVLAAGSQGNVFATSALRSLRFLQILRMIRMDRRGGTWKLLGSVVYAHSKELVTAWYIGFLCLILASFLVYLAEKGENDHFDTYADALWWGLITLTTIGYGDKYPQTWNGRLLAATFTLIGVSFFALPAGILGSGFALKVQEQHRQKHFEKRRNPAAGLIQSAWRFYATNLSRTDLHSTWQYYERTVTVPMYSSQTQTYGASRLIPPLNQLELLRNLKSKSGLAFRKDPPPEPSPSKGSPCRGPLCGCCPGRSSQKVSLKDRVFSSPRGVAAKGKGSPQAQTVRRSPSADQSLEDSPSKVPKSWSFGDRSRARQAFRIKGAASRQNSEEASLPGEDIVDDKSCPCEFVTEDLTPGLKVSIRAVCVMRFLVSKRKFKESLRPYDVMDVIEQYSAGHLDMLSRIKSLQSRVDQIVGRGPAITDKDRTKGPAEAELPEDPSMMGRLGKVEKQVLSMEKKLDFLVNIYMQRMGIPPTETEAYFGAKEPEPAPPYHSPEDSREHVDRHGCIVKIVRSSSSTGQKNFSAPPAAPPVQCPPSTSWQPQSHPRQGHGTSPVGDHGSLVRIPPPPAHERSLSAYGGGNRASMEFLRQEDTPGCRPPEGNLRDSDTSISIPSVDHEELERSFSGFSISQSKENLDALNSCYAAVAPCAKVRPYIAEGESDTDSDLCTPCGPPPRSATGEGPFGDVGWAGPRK

EC50: ~5.8 µM
SMILES: O=C(Nc1ccc(Cl)nc1)c1ccc(F)cc1 [ztz240, N-(6-chloro-pyridin-3-yl)-4-fluorobenzamide]
